Like-named read-outs stand apart in the source and are kept apart here.
Key:
Format in all cases: in vivo
[1] = system: Phaedon cochleariae (Mustard Beetle); assay: Test 3 a): leaf disc spray test, Phaedon cochleariae larvae; settings: for pest or weed control at 10 ppm / mortality at 5 ppm: Phaedon cochleariae, foliar; for pest or weed control at 10 ppm: read-out: Phaedon % m 10 ppm; for mortality at 5 ppm: read-out: mortality of larvae of Phaedon cochleariae
Text: (§1) One or more dilutions of the compounds to be tested were made in 50% aqueous acetone.
(§2) a) Test species: Plutella xylostella (Diamond-back Moth) and Phaedon cochleariae (Mustard Beetle)
(§3) Turnip leaf discs were set in agar in petri-dishes and infected with 10 larvae (2nd instar Plutella or 3rd instar Phaedon). Four replicate dishes were assigned to each treatment and were sprayed under a Potter Tower with the appropriate test dilution. Four or five days after treatment the dishes were removed from the constant temperature (25° C.) room in which they had been held and the mean percentage mortalities of larvae were determined.

[2] = system: Megoura viciae (Vetch Aphid); assay: Test 3 b): spray of infested tic bean plants, Megoura viciae; settings: for score from 4 replicates, Megoura viciae: Test 3 method (b), application of 50 ppm, score 0-3 per replicate, maximum 12; for mortality at 50 ppm: Megoura viciae, read-out: mortality of Megoura viciae; for Megoura score/12 50 ppm: Tables 1 and 3, sum of scores 0-3 of 4 replicates
Method: as §1
b) Megoura viciae (Vetch Aphid)
Potted tic bean plants previously infected with mixed stages of Megoura were sprayed to run-off using a laboratory turntable sprayer. Treated plants were held in a greenhouse for 2 days and were assessed for aphid mortality using a scoring system, judging the response in comparison with plants treated with 50% aqueous acetone alone, as controls.

[3] = system: Plutella xylostella (Diamond-back Moth); assay: whole plant or invertebrate; settings: foliar; for mortality at 500 ppm: read-out: mortality of larvae of Plutella xylostella
Text: as §1, §2, §3

[4] = Tables 1-3, % mortality at 10 ppm

5-Amino-3-chlorodifluoromethyl-1-(2,6-dichloro-4-trifluoromethylphenyl)-4-cyanopyrazole [Compound 128]
Phaedon % m 10 ppm [1, 4]: 100%
score from 4 replicates, Megoura viciae [2]: 12

5-Amino-3-chlorofluoromethyl-4-cyano-1-(2,6-dichloro-4-trifluoromethylphenyl)pyrazole [Compound 166]
score from 4 replicates, Megoura viciae [2]: 12

Cc1nn(-c2c(Cl)cc(C(F)(F)F)cc2Cl)c(N)c1C#N [Compound 112, 5-Amino-4-cyano-1-(2,6-dichloro-4-trifluoromethylphenyl)-3-methylpyrazole]
pest or weed control at 10 ppm [1]: 98%
mortality at 50 ppm [2]: 100%
score from 4 replicates, Megoura viciae [2]: 12

N#Cc1c(Cl)nn(-c2c(Cl)cc(C(F)(F)F)cc2Cl)c1N [Compound 114, 5-Amino-3-chloro-4-cyano-1-(2,6-dichloro-4-trifluoromethylphenyl)pyrazole]
mortality at 500 ppm [3]: 100%
pest or weed control at 10 ppm [1]: 100%
Megoura score/12 50 ppm [2]: 9

N#Cc1c(Br)nn(-c2c(Cl)cc(C(F)(F)F)cc2Cl)c1N [Compound 115, 5-Amino-3-bromo-4-cyano-1-(2,6-dichloro-4-trifluoromethylphenyl)pyrazole]
mortality at 500 ppm [3]: 100%
pest or weed control at 10 ppm [1]: 100%
Megoura score/12 50 ppm [2]: 10

CCSNc1c(C#N)c(C)nn1-c1c(Cl)cc(C(F)(F)F)cc1Cl [Compound 117, 4-Cyano-1-(2,6-dichloro-4-trifluoromethylphenyl)-3-methyl-5-ethanesulphenylaminopyrazole]
pest or weed control at 10 ppm [1]: 68%
Megoura score/12 at 10 ppm ([2]; Table 3, value marked +: score at 10 ppm): 10+

Cc1c(C#N)c(C(F)(F)F)nn1-c1c(Cl)cc(C(F)(F)F)cc1Cl [Compound 152, 4-Cyano-1-(2,6-dichloro-4-trifluoromethylphenyl)-5-methyl-3-trifluoromethylpyrazole]
mortality at 500 ppm [3]: 100%
pest or weed control at 10 ppm [1]: 100%

CN(C)S(=O)(=O)c1c(C(F)(F)F)nn(-c2c(Cl)cc(C(F)(F)F)cc2Cl)c1N [Compound 153, 5-Amino-1-(2,6-dichloro-4-trifluoromethylphenyl)-4-(N,N-dimethylsulphamoyl)-3-trifluoromethylpyrazole]
pest or weed control at 10 ppm [1]: 100%
Megoura score/12 50 ppm [2]: 11

N#Cc1c(C(F)(F)C(F)(F)C(F)(F)F)nn(-c2c(Cl)cc(C(F)(F)F)cc2Cl)c1N [Compound 155, 5-Amino-4-cyano-1-(2,6-dichloro-4-trifluoromethylphenyl)-3-heptafluoropropylpyrazole]
pest or weed control at 500 ppm ([3]; Tables 1-2, % mortality at 500 ppm, read-out: Plutella % m 500 ppm): 96%
pest or weed control at 10 ppm [1, 4]: 100%

N#Cc1nn(-c2c(Cl)cc(SC(F)(F)F)cc2Cl)c(N)c1C#N [Compound 156, 5-Amino-3,4-dicyano-1-(2,6-dichloro-4-trifluoromethylthiophenyl)pyrazole]
mortality at 50 ppm [2]: 100%
score from 4 replicates, Megoura viciae [2]: 12

Cc1nn(-c2c(Cl)cc(C(F)(F)F)cc2Cl)c(N)c1S(C)(=O)=O [Compound 161, 5-Amino-1-(2,6-dichloro-4-trifluoromethylphenyl)-4-methanesulphonyl-3-methylpyrazole]
mortality at 5 ppm [1]: 100%
mortality at 50 ppm [2]: 100%
score from 4 replicates, Megoura viciae [2]: 12

N#Cc1c(C(F)(F)F)nn(-c2c(Cl)cc(SC(F)(F)F)cc2Cl)c1N [Compound 165, 5-Amino-4-cyano-1-(2,6-dichloro-4-trifluoromethylthiophenyl)-3-trifluoromethylpyrazole]
mortality at 5 ppm [1]: 100%
mortality at 50 ppm [2]: 100%
score from 4 replicates, Megoura viciae [2]: 12

CC(C)(C)C(=O)Nc1c([N+](=O)[O-])c(C(F)(F)F)nn1-c1c(Cl)cc(C(F)(F)F)cc1Cl [Compound 178, 1-(2,6-Dichloro-4-trifluoromethylphenyl)-4-nitro-3-trifluoromethyl-5-trimethylacetylaminopyrazole]
mortality at 500 ppm [3]: 100%
mortality at 5 ppm [1]: 100%

CCOC(=O)Nc1c([N+](=O)[O-])c(C(F)(F)F)nn1-c1c(Cl)cc(C(F)(F)F)cc1Cl [Compound 179, 1-(2,6-Dichloro-4-trifluoromethylphenyl)-5-ethoxycarbonylamino-4-nitro-3-trifluoromethylpyrazole]
mortality at 500 ppm [3]: 100%
mortality at 5 ppm [1]: 100%

CCOC(=O)Nc1c(S(C)(=O)=O)c(C(F)(F)F)nn1-c1c(Cl)cc(C(F)(F)F)cc1Cl [Compound 187, 1-(2,6-Dichloro-4-trifluoromethylphenyl)-5-ethoxycarbonylamino-4-methanesulphonyl-3-trifluoromethylpyrazole]
mortality at 500 ppm [3]: 100%
mortality at 5 ppm [1]: 100%

CCOC(=O)Nc1c(C#N)c(C#N)nn1-c1c(Cl)cc(C(F)(F)F)cc1Cl [Compound 188, 1-(2,6-Dichloro-4-trifluoromethylphenyl)-3,4-dicyano-5-ethoxycarbonylaminopyrazole]
mortality at 500 ppm [3]: 100%
mortality at 5 ppm [1]: 100%

Cc1nn(-c2c(Cl)cc(C(F)(F)F)cc2Cl)c(N)c1I [Compound 190, 5-Amino-1-(2,6-dichloro-4-trifluoromethylphenyl)-4-iodo-3-methylpyrazole]
mortality at 50 ppm [2]: 100%
score from 4 replicates, Megoura viciae [2]: 12

Cc1nn(-c2c(Cl)cc(C(F)(F)F)cc2Cl)c(N)c1[N+](=O)[O-] [Compound 191, 5-Amino-1-(2,6-dichloro-4-trifluoromethylphenyl)-3-methyl-4-nitropyrazole]
mortality at 50 ppm [2]: 100%
score from 4 replicates, Megoura viciae [2]: 12

O=[N+]([O-])c1cn(-c2c(Cl)cc(C(F)(F)F)cc2Cl)nc1C(F)(F)F [Compound 193, 1-(2,6-Dichloro-4-trifluoromethylphenyl)-4-nitro-3-trifluoromethylpyrazole]
mortality at 500 ppm [3]: 100%
mortality at 5 ppm [1]: 100%

N#Cc1cn(-c2c(Cl)cc(C(F)(F)F)cc2Cl)nc1[N+](=O)[O-] [Compound 200, 1-(2,6-Dichloro-4-trifluoromethylphenyl)-4-cyano-3-nitropyrazole]
mortality at 50 ppm [2]: 100%
score from 4 replicates, Megoura viciae [2]: 12

N#Cc1nn(-c2c(Cl)cc(C(F)(F)F)cc2Cl)c([N+](=O)[O-])c1C#N [Compound 201, 1-(2,6-Dichloro-4-trifluoromethylphenyl)-3,4-dicyano-5-nitropyrazole]
mortality at 50 ppm [2]: 100%
score from 4 replicates, Megoura viciae [2]: 12

CC(C)(C)[Si](C)(C)c1c(C#N)c(C(F)(F)F)nn1-c1c(Cl)cc(C(F)(F)F)cc1Cl [Compound 206, 5-tert.-Butyldimethylsilyl-4-cyano-1-(2,6-dichloro-4-trifluoromethylphenyl)-3-trifluoromethylpyrazole]
mortality at 5 ppm [1]: 100%
mortality at 50 ppm [2]: 100%
score from 4 replicates, Megoura viciae [2]: 12

CSc1c(C#N)c(C(F)(F)F)nn1-c1c(Cl)cc(C(F)(F)F)cc1Cl [Compound 207, 4-Cyano-1-(2,6-dichloro-4-trifluoromethylphenyl)-5-methylthio-3-trifluoromethylpyrazole]
mortality at 500 ppm [3]: 100%
mortality at 5 ppm [1]: 100%

COC(=O)Nc1c(C#N)c(C(F)(F)F)nn1-c1c(Cl)cc(C(F)(F)F)cc1Cl [Compound 212, 4-Cyano-1-(2,6-dichloro-4-trifluoromethylphenyl)-5-methoxycarbonylamino-3-trifluoromethylpyrazole]
mortality at 500 ppm [3]: 100%
mortality at 5 ppm [1]: 100%

C[S+]([O-])c1c(C(F)(F)F)nn(-c2c(Cl)cc(C(F)(F)F)cc2Cl)c1N (centres unmarked) [Compound 216, 5-Amino-1-(2,6-dichloro-4-trifluoromethylphenyl)-4-methylsulphinyl-3-trifluoromethylpyrazole]
mortality at 500 ppm [3]: 100%
mortality at 5 ppm [1]: 100%

CC[S+]([O-])c1c(C(F)(F)F)nn(-c2c(Cl)cc(C(F)(F)F)cc2Cl)c1N (centres unmarked) [Compound 217, 5-Amino-1-(2,6-dichloro-4-trifluoromethylphenyl)-4-ethylsulphinyl-3-trifluoromethylpyrazole]
mortality at 5 ppm [1]: 100%
mortality at 50 ppm [2]: 100%
score from 4 replicates, Megoura viciae [2]: 12

Cc1nn(-c2c(Cl)cc(C(F)(F)F)cc2Cl)c(N)c1S(=O)(=O)C(Cl)(Cl)Cl [Compound 224, 5-Amino-1-(2,6-dichloro-4-trifluoromethylphenyl)-4-trichloromethanesulphonyl-3-methylpyrazole]
mortality at 5 ppm [1]: 100%
mortality at 50 ppm [2]: 100%
score from 4 replicates, Megoura viciae [2]: 12

CCSc1c(C)nn(-c2c(Cl)cc(C(F)(F)F)cc2Cl)c1N [Compound 225, 5-Amino-1-(2,6-dichloro-4-trifluoromethylphenyl)-4-ethylthio-3-methylpyrazole]
mortality at 50 ppm [2]: 100%
score from 4 replicates, Megoura viciae [2]: 12

CSc1c(C)nn(-c2c(Cl)cc(C(F)(F)F)cc2Cl)c1N [Compound 226, 5-Amino-1-(2,6-dichloro-4-trifluoromethylphenyl)-3-methyl-4-methylthiopyrazole]
mortality at 5 ppm [1]: 100%
mortality at 50 ppm [2]: 100%
score from 4 replicates, Megoura viciae [2]: 12

CSc1c(C(F)(F)F)nn(-c2c(Cl)cc(C(F)(F)F)cc2Cl)c1N [Compound 229, 5-Amino-1-(2,6-dichloro-4-trifluoromethylphenyl)-4-methylthio-3-trifluoromethylpyrazole]
mortality at 500 ppm [3]: 100%
mortality at 5 ppm [1]: 100%

Reference: US6372774B1, “Derivatives of N-phenylpyrazoles” (Rhone-Poulenc Agriculture Ltd., priority 1985, dated 2002)
